Columns and labels:
[1] = Rabbit study: plasma levels of fluoxetine and norfluoxetine after single oral vs. intravaginal dose
Protocol: (§1) A study was designed to compare the pharmacokinetic profiles of oral vs. intravaginal administration of fluoxetine in white albino female New Zealand rabbits. The study compared the blood levels of fluoxetine and/or its metabolites in the rabbits after either a single oral dose or a single intravaginal dose of fluoxetine hydrochloride. Both oral (tablet) and intravaginal (transvaginal insert) administration delivered the standard human daily dose of 20 mg fluoxetine hydrochloride to each rabbit. The oral route was used to compare the bioavailability of fluoxetine by the two routes of administration.
(§2) Three rabbits received the fluoxetine tablets orally, while three rabbits received fluoxetine inserts intravaginally. The fluoxetine tablets were administered orally using an animal pilling device. The fluoxetine inserts were administered by insertion into the vaginas of the rabbits. The inserts remained in place for 2–4 hours, after which they were removed. Removal was accomplished by using an appropriate instrument to grasp the extension on the back of the insert. If an insert was expelled from an animal before removal, it was noted but not replaced. Both tablets and intravaginal inserts were administered once on Day 0.
Blood samples were obtained for the determination of plasma concentrations of fluoxetine. Starting on Day 0, blood samples were obtained for toxicokinetic determinations from all animals pretest and at 1, 3, 8, 12, 16, 24, 36, 48, 72, 96, 120, 144, 168, 240, 360, 480, 672 and 840 hours post-dose. Pre-dose samples were collected one week prior to dosing. Approximately 1.5 mL of whole blood was obtained from the medial auricular artery of the unanesthetized rabbits, unfasted, and were preserved using ethylenediamine tetraacetic acid (EDTA). […]
The EDTA preserved rabbit plasma samples were analyzed for fluoxetine and norfluoxetine using a solid phase extraction (SPE) technique. […]
Samples were evaluated using a solid phase extraction technique using conditioned SPE cartridges, then analyzed via HPLC and mass spectroscopy. […]

[2] = oral administration; cited from earlier work
[3] = rabbit
Protocol: as §1, §2
The animals were observed twice daily for mortality and general condition. Animals in poor health were identified and further monitored. In addition, observations were made for any signs of toxic or pharmacologic effects (e.g., abnormalities in general, appearance, activity, behavior, respiration, etc.).

[4] = rabbit, cited from earlier work

Row | SMILES | mean plasma levels of metabolite norfluoxetine, intravaginal delivery compared to oral delivery ([1]; after fluoxetine single 20 mg dose) | mean norfluoxetine levels, persistence ([1]; oral group) | half life [2] [h] | fluoxetine plasma levels after 72 hours ([1]; in vivo, po) | decreased food consumption ([3]; in vivo, po) | differences in clinical observations or body weights between administration methods ([3]; in vivo, po) | mortality ([3]; oral tablet and intravaginal insert groups, length of the study) | tolerability of repeated daily doses ([4]; in vivo) | mortality with repeated daily doses ([4]; up to 7.5 mg/kg/day)
1 | NCCC(Oc1ccc(C(F)(F)F)cc1)c1ccccc1 (stereo not shown) [norfluoxetine] | much lower | present throughout most of the study | 170 to 220 |  |  |  |  |  | 
2 | CNCCC(Oc1ccc(C(F)(F)F)cc1)c1ccccc1 (racemic) [fluoxetine, dl-N-methyl-γ-[4-(trifluoromethyl)phenoxy]benzenepropanamine] |  |  | 48 to 72 | almost undetectable | One animal from each treatment group | no differences | No mortality | fairly well tolerated | not associated with mortality
